From patent US20040038369A1, “Airway-specific trypsin-like enzymes and method of using the same” (priority 2000, published 2004) come the findings set out here.

The test system of test [1] is EGF on surface of H292 cell membrane. Briefly: Surface antigen analysis (FACS) of EGF on NCI-H292 cell membrane. Format: cell-based, human. The conditions noted are these: HAST 300 mU/mL + inhibitor (leupeptin 10 μM, BB1101 5 μM); PBS 10.79, HAST alone 8.33. Here is the method:
(§1) NCI-H292 cells (purchased from ATCC) were cultured on a 10 cm dish in 10% FCS-containing RPMI-1640 until to reach a confluent state, subjected to the replacement of the culture medium by RPMI-1640 containing 0.1% of BSA, and further cultured for 24 hours. The cultured cells were washed with PBS, treated and floated in PBS containing 5 mM of EDTA at 37° C. for five minutes, and then suspended in 0.1%BSA-containing RPMI-1640 in a density of 1.0×10^7 cells/mL.
(§2) The above-described cell suspension and 0.1% BSA-containing RPMI-1640 containing HAST in a double concentration (600 mU/mL) were mixed with each other in equivalent amounts, respectively, and reacted with each other at 37° C. for 30 minutes (final cell concentration: 5.0×10^6 cells/mL, final HAST concentration: 300 mU/mL). The reaction solution was mixed with ice-cooled 1% FCS-containing PBS in a volume of 5 times that of the reaction solution to stop the reaction, and the treated solution was then supplied for a surface antigen analysis.
(§3) The cells subjected to the prescribed treatments were suspended in 1% FCS-containing PBS in a density of 1.0×10^7 cells/mL. 100 μL of the prepared cell suspension was mixed with a primary antigen (EGF back ground dyeing: 1 μg of normal mouse IgG1 (produced by R & D Corp.), EGF dyeing: 1 μg of an anti-EGF mouse monoclonal antibody (produced by R & D Corp.), HB-EGF back ground dyeing: free from the primary antigen, HB-EGF dyeing: 2 μg of an anti-HB-EGF goat polyclonal antibody (produced by R & D Corp.)) and reacted on ice for 30 minutes. The reaction product was once washed with 5 mL of 1% FCS-containing PBS, mixed with 2 μg of a secondary antigen (EGF back ground dyeing and EGF dyeing: FITC conjugated F(ab′)2 fragment to mouse IgG (produced by Dako Corp.), HB-EGF back ground dyeing and HB-EGF dyeing: Swine Anti-Goat Ig's Fluorescein Conjugate (produced by KPL Corp.)), and then reacted on ice for 30 minutes. The reaction solution was once washed with 5 mL of 1% FCS-containing PBS, and then mixed with Cell Fix (produced by Becton Dickinson Corp.) to immobilize the cells. The expression of the surface antigen was assayed with FACS Calibur (produced by Becton Dickinson Corp.) and analyzed with Cell Quest (produced by Becton Dickinson Corp.). Average fluorescence intensities were shown in the next table as the indicators of expression intensities.
(§4) HAST (600 mU/mL) was reacted with leupeptin (10 μM) or BB1101 (5 μM) in 0.1% BSA-containing RPMI-1640 on ice for 30 minutes, and the reaction solution was mixed with the equivalent amount of a cell suspension preliminarily treated with leupeptin (10 μM) or BB1101 (5 μM) at 37° C. for 30 minutes, and further treated at 37° C. for 30 minutes (final HAST concentration: 300 mU/mL, final leupeptin concentration: 10 μM, final BB1101 concentration: 5 μM, final cell concentration: 5.0×10^6 cells/mL). The reaction solution was mixed with ice-cooled 1% FCS-containing PBS in an amount of five times that of the reaction solution to stop the reaction, and then supplied for the surface antigen analysis.
(§5) The cells subjected to the prescribed treatments were suspended in 1% FCS-containing PBS in a density of 1.0×10^7 cells/mL. […]

In test [2] the test system is HB-EGF on surface of H292 cell membrane. The test can be described thus: Surface antigen analysis (FACS) of HB-EGF on NCI-H292 cell membrane. The class given is cell-based, human. The following applies: HAST 300 mU/mL + inhibitor (leupeptin 10 μM, BB1101 5 μM); PBS 8.61, HAST alone 6.26. The method, then:
as §1, §2, §3, §4, §5

The next test concerns NCI-H292 cells. The test can be described thus: AB-PAS staining of mucus glycoprotein in NCI-H292 cells. Format: cell-based, human. The conditions noted are these: FIG. 1 and 2. The method, then:
NCI-H292 cells (human pulmonary mucoepidermoid tumor cell strain, purchased from ATCC) were suspended in 10% FCS (Fetal Calf Serum)-containing RPMI-1640 (produced by Gibco Corp.), sowed on a Lab-Tek 8 well chamber slide (produced by Nunc Corp.) in a density of 6.0×10^4 cells/cm^2, cultured for 72 hours, subjected to the replacement of the culture solution by RPMI-1640 containing 0.1% of BSA, and further cultured for 24 hours.
On the day of the treatment, the culture solution of each well was replaced by RPMI-1640 (containing 0.1% BSA) containing EGF (5 ng/mL, produced by Becton Dickinson Corp.), HB-EGF (5 ng/mL, produced by R & D Corp.), TGF-α (5 ng/mL, produced by Peprotech Corp.), or PBS to start the treatment. Then, the cells were incubated at 37° C. for 24 hours.
After the prescribed 24 hours treatment, the culture supernatant was removed. The residue was once washed with PBS, mixed with 4% paraformaldehyde/PBS, and then allowed to stand at room temperature for one hour to immobilize the cells. The immobilized cells were twice washed with Milli Q water and then stained with AB-PAS. The staining was carried out according to a book (“All of new dyeing methods” p136-150 (Iyaku Shuppansha)). After staining, the cells were sequentially immersed in 70, 80, and 100% ethanol for five minutes, respectively, to remove water, sealed in an Aquatex (produced by Merck Corp.), and then subjected to the observation of the staining image with an optical microscope. From the results, it was clarified that all of HAST, TGF-α, EGF, and HB-EGF promoted the production of the mucus glycoprotein.
NCI-H292 cells (purchased from ATCC) were suspended in 10% FCS-containing RPMI-1640 (produced by Gibco Corp.), sowed on a Lab-Tek 8 well chamber slide (produced by Nunc Corp.) in a density of 6.0×10^4 cells/cm^2, cultured for 72 hours, subjected to the replacement of the culture solution by RPMI-1640 containing 0.1% of BSA, and further cultured for 24 hours. […]

A further test addresses T1, PAR-2 (Homo sapiens, UniProt P55085).
T1 construct: expressed in transfected cells; host or cells: Sf9 insect cells infected with recombinant baculovirus VL-PAR (pVL1393)
T1 sequence (P55085 26-397): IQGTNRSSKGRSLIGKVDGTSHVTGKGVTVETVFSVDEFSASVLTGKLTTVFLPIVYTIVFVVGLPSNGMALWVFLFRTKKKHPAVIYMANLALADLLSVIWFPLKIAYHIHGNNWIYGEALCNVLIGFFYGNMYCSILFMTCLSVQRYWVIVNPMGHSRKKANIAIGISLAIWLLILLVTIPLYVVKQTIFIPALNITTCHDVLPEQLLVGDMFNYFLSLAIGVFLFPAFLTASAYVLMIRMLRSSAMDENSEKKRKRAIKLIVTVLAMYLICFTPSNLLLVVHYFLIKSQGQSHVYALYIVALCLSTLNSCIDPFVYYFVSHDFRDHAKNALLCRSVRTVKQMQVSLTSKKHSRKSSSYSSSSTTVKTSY
The test can be described thus: Calcium influx in PAR-2-expressing insect cells. Format: cell-based. The conditions noted are these: AST 2 units/mL; trypsin, thrombin 0.1 to 10 units/mL; SFLLRNamide, SLIGRL 10 to 100 μM. The method, then:
(§6) The above-obtained recombinant baculovirus VL-PAR for expressing the PAR was used to infect 1.0×10^7 Sf9 cells sowed on a 75 cm^2 flask at an MOI=2, and was then left and stationally cultured at 27° C. for 40 hours. After the culture, the infected cells were recovered and then subjected to a calcium influx experiment to-confirm the function of the PAR.
(§7) The recovered infected cells (about 5×10^6 cells) were once washed with HEPES-Tyrode buffer solution-Ca^2+ (−) pH 7.4, and then suspended in 5 mL of HEPES-Tyrode buffer solution (containing Fura2-AM, 1 μg/mL) to load the Fura2-AM on the cells at 27° C. for 30 minutes. The suspension was centrifuged at 800 rpm at room temperature for 5 minutes to recover the cells. The cells were twice washed with HEPES-Tyrode buffer solution-Ca^2+ (−) pH 7.4 and then resuspended in 5 mL of HEPES-Tyrode buffer solution-Ca^2+ (−) pH 7.4. The cell suspension was mixed with 5 μL of 1M CaCl2 to give a final concentration of 1 mM CaCl2, and then incubated in a shaded state at room temperature for 5 minutes. The prepared Fura2-AM-loaded infected cells were dispensed into a 96 well plate in a volume of 100 μL/well, further subjected to the dispensation of HEPES-Tyrode buffer solution-C^2+ (+) pH 7.4 in a volume of 80 μL/well, and then assayed with a Fluorescence Drug Screening System (made by Hamamatsu Photonics Co.). Namely, [intensity of 500 nm fluorescent light due to 340 nm exciting light]/[intensity of 500 nm fluorescent light due to 380 nm exciting light] (reflecting the concentration of calcium in the cells) was assayed.

A further test has as its target T2, PAR-1 (Homo sapiens, UniProt P25116).
T2 construct: expressed in transfected cells; host or cells: Sf9 insect cells infected with recombinant baculovirus VL-PAR (pVL1393)
T2 sequence (P25116 22-425): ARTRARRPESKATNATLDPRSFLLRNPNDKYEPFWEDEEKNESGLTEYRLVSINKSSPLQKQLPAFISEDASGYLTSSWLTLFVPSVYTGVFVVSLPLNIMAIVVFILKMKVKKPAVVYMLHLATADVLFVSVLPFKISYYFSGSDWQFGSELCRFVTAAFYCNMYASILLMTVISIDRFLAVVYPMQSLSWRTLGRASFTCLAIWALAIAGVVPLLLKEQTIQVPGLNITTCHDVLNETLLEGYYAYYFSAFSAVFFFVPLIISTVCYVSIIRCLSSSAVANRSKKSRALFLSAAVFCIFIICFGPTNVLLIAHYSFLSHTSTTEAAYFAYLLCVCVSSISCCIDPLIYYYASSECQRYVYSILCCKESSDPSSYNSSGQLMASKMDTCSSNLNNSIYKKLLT
The test can be described thus: Calcium influx in PAR-1-expressing insect cells. Format: cell-based. The conditions noted are these: AST 2 units/mL; trypsin, thrombin 0.1 to 10 units/mL; SFLLRNamide 10 to 100 μM.

A further test deals with T3, PAR-4 (Homo sapiens, UniProt Q96RI0).
T3 construct: expressed in transfected cells; host or cells: Sf9 insect cells infected with recombinant baculovirus VL-PAR (pVL1393)
T3 sequence (Q96RI0 18-385): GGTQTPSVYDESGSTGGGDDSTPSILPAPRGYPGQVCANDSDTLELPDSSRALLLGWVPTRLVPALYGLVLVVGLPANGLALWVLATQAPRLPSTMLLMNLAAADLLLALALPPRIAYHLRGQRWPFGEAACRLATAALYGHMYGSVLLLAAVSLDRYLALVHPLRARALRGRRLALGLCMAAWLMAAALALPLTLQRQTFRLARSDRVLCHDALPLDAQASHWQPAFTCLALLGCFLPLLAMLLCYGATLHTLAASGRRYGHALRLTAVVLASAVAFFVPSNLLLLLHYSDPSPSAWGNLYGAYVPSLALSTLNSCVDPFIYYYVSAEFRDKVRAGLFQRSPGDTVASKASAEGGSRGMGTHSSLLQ
Briefly: Calcium influx in PAR-4-expressing insect cells. Format: cell-based. The following applies: AST 2 units/ml; trypsin, thrombin 0.1 to 10 units/mL. The method, then: as §6
as §7, with “Namely, [intensity of 500 nm fluorescent light due to 340 nm exciting light]/[intensity of 500 nm fluorescent light due to 380 nm exciting light] (reflecting the concentration of calcium in the cells) was assayed.” left out

For the molecule `C=CC[C@H](C(=O)NO)[C@@H](CC(C)C)C(=O)N[C@@H](Cc1ccccc1)C(=O)NC` [BB01, reference compound], the “EGF expression intensity on the surfaces of the cell membranes (average fluorescence intensity)” value in test [1] came out at 7.49. Also, in test [2], the “HB-EGF expression intensity on the surfaces of the cell membranes (average fluorescence intensity)” value is recorded as 6.65. Consider `CC(=O)N[C@@H](CC(C)C)C(=O)N[C@@H](CC(C)C)C(=O)N[C@H](C=O)CCCNC(=N)N` [leupeptin, reference compound], for which the “EGF expression intensity on the surfaces of the cell membranes (average fluorescence intensity)” value in test [1] worked out at 10.18. Also, the “HB-EGF expression intensity on the surfaces of the cell membranes (average fluorescence intensity)” value in test [2] was 7.3. Regarding “HB-EGF: Heparin-binding EGF-like Growth Factor, EGFR ligand, produced by R & D Corp. [reference compound]”, in the test on NCI-H292 cells, the “production of the mucus glycoprotein” value is on record as “promoted”.

Turning to SLIGRL [agonist peptide for PAR-2], the “Ca2+ influx” value in the test with PAR-2 is “observed”. Consider “TGF-α: Transforming Growth Factor-α, EGFR ligand, produced by Peprotech Corp. [reference compound]”, for which the “production of the mucus glycoprotein” value in the test with NCI-H292 cells is listed as “promoted”.

For the molecule thrombin [reference compound], the “Ca2+ influx” value on PAR-1, at PAR-2 and at PAR-4 was “observed” throughout.
